Experimental data reported in patent US8618162B2 (priority 2007, dated 2013).
Like-named read-outs stand apart in the source and are kept apart here.

What was measured:
Ag ace-1S [1] = experiment: biochemical; parameters: species or system Anopheles gambiae; conditions: selectivity, values in parenthesis
Ag ace-1S [2] = target: T1, Ag ace-1S (Anopheles gambiae, UniProt Q869C3); experiment: biochemical
T1 construct: encoding the entire wild type AgAChE protein (ace1, 737 amino acids); made in house; host or cells: Drosophila S2 cells (stably transfected, pMT/V5-His vector), clarified cell lysate

Ag hmg AChE = target: T2, Ag hmg AChE (Anopheles gambiae, UniProt Q869C3); experiment: Ellman AChE inhibition assay, Anopheles gambiae homogenate (Ag hmg); format: biochemical; conditions: for IC50: pH 7.8, 10 min preincubation; for IC50 ratio (hAChE/Ag hmg): selectivity, values in parenthesis
T2 construct: To prepare the Ag homogenate (Ag hmg) 10 Anopheles gambiae mosquitoes were combined; from tissue; host or cells: whole Anopheles gambiae mosquitoes, crude homogenate supernatant

Anopheles gambiae = experiment: Live mosquito contact toxicity, WHO filter paper assay; format: in vivo; conditions: for Live Mosquito Contact Toxicity MC for 100% lethality at 24 hr: 1 hr exposure to treated filter paper; for lethality at 24 h: at 11 ug/cm^2, 1 hr exposure
hAChE = target: T3, hAChE (Homo sapiens, UniProt P22303); experiment: Ellman AChE inhibition assay, recombinant hAChE; format: biochemical
T3 construct: purchased Sigma C1682

Md hmg AChE = target: T4, Md hmg AChE (Musca domestica, UniProt Q7YWJ9)
T4 construct: Comparison of Ag homogenate and Md head; host or cells: housefly head homogenate

bovine AChE = target: T5, bovine AChE (Bos taurus, UniProt P23795); conditions: read-out: potency at bovine AChE; Kohn 1965; cited from earlier work
T5 sequence (P23795 31-613): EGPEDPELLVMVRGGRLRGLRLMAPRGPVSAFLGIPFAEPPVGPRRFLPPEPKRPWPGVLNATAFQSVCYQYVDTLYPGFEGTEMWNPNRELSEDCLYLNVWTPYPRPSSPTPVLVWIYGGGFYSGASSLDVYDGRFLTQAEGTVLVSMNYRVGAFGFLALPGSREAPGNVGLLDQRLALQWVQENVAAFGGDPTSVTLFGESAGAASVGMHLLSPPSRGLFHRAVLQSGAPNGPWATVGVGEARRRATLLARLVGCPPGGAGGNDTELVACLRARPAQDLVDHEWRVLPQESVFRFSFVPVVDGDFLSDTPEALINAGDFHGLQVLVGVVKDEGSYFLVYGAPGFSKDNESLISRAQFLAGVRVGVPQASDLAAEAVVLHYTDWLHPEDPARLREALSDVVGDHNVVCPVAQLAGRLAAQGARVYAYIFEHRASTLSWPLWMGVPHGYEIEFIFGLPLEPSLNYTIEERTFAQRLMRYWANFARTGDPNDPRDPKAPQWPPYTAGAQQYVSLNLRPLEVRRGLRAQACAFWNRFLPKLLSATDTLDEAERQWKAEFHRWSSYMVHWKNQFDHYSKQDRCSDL

[3] = recombinant Anopheles gambiae AChE, WT (susceptible) strain, read-out: Ag ace-1S IC50
[4] = WT Anopheles gambiae homogenate, read-out: Ag WT hmg IC50
[5] = pH 7.8, 10 min preincubation, read-out: hAChE recomb. IC50
[6] = Musca domestica head homogenate; data from Metcalf / Kolbezen; read-out: Md WT hmg IC50; cited from earlier work
[7] = read-out: Md WT hmg IC50; Musca domestica head homogenate; data from Metcalf / Kolbezen; cited from earlier work
[8] = Ag WT hmg IC50, WT Anopheles gambiae homogenate

T3 sequence (P22303 32-614): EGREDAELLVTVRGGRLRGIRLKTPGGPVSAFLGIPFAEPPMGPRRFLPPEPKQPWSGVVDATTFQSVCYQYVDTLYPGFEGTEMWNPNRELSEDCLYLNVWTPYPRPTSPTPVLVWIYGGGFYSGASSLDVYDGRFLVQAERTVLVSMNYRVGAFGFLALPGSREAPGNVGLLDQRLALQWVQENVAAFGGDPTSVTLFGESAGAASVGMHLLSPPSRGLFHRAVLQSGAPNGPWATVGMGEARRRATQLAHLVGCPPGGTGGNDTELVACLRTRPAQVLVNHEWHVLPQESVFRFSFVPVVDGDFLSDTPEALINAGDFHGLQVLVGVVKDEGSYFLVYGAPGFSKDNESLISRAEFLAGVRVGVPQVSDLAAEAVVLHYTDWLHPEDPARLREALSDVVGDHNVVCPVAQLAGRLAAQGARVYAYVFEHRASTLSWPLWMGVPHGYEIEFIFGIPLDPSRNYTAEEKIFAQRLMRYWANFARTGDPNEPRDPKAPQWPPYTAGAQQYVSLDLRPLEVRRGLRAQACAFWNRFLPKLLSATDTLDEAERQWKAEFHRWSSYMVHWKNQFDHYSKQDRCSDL
T2 sequence (Q869C3 39-737): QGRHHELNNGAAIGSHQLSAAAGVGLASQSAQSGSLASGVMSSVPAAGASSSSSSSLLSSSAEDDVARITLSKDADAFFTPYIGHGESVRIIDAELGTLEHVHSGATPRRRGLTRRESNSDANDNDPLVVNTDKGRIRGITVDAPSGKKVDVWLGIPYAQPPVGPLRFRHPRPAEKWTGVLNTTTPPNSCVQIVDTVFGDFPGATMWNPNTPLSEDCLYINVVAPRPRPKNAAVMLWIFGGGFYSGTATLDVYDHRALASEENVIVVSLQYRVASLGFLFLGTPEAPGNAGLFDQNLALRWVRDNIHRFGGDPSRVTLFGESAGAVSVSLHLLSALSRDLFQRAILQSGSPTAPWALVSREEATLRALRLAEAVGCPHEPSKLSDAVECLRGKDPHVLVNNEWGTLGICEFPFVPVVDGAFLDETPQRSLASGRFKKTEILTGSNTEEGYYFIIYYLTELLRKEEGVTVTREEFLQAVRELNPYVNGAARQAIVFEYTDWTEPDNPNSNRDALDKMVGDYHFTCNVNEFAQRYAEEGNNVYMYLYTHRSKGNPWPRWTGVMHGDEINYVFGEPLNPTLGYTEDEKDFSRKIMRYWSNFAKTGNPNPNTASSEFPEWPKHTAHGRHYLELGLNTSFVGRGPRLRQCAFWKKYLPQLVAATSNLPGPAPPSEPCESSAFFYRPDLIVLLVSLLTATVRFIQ
T1 sequence (Q869C3 39-737): as above
T4 sequence (Q7YWJ9 1-692): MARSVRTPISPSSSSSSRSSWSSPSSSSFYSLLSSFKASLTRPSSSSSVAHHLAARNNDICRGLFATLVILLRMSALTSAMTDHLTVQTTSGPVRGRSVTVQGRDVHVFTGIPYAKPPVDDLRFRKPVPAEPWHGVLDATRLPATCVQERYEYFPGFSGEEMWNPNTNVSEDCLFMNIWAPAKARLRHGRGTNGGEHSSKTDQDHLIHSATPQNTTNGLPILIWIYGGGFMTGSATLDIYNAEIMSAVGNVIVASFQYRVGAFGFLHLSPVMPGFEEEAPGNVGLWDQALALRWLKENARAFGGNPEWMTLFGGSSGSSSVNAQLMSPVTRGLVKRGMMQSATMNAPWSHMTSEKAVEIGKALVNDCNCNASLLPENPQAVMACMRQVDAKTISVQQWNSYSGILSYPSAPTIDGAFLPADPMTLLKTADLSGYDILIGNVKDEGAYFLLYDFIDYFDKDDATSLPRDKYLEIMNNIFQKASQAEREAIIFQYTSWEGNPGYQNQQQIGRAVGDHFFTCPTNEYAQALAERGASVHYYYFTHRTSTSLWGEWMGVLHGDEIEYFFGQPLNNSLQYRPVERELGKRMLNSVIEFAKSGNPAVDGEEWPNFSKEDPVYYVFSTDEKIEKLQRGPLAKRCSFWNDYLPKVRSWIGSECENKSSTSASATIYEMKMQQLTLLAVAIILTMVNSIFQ

## 2-isopropylphenyl-N-methylcarbamate [Compound 22b]
Ag ace-1S [1]
  IC50 ratio (hAChE/Ag ace-1S): (11x)
Ag ace-1S [2]; [3]
  IC50: 0.426 µM
Ag hmg AChE; [4]
  IC50: 0.507 µM
Ag hmg AChE
  IC50 ratio (hAChE/Ag hmg): (8.8x)
Anopheles gambiae
  Live Mosquito Contact Toxicity MC for 100% lethality at 24 hr: 56 ug/cm^2
hAChE; [5]
  IC50: 4.54 µM

## CNC(=O)O/N=C/C(C)(C)SC [Aldicarb, reference compound]
Ag ace-1S [2]
  IC50: 10.9 µM
Ag hmg AChE; [4]
  IC50: 4.62 µM
Md hmg AChE; [6]
  IC50: 84 µM
Anopheles gambiae
  Live Mosquito Contact Toxicity MC for 100% lethality at 24 hr: 0.55 ug/cm^2

## CNC(=O)Oc1cccc2c1OC(C)(C)O2 [Bendiocarb, reference compound]
Ag ace-1S [1]
  IC50 ratio (hAChE/Ag ace-1S): (1.9x)
Ag ace-1S [2]
  IC50: 0.142 µM
Ag hmg AChE; [4]
  IC50: 0.065 µM
Ag hmg AChE
  IC50 ratio (hAChE/Ag hmg): (4.1x)
Anopheles gambiae
  Live Mosquito Contact Toxicity MC for 100% lethality at 24 hr: 0.55 ug/cm^2
hAChE; [5]
  IC50: 0.27 µM

## CNC(=O)Oc1cccc2ccccc12 [Carbaryl, reference compound]
Ag ace-1S [2]
  IC50: 0.515 µM
Ag hmg AChE; [4]
  IC50: 0.262 µM
Md hmg AChE; [6]
  IC50: 0.9 µM
hAChE; [5]
  IC50: 2.84 µM

## CNC(=O)Oc1cccc(C(C)(C)C)c1 [Compound 1a, 3-tert-butylphenyl-N-methyl carbamate]
Bovine AChE
  IC50: 0.53 µM
Md hmg AChE; [7]
  IC50: 0.4 µM
Anopheles gambiae
  Live Mosquito Contact Toxicity MC for 100% lethality at 24 hr: 1.1 ug/cm^2
Anopheles gambiae; 1 hr exposure, piperonyl butoxide 0.3 mg/mL
  Live Mosquito Contact Toxicity MC for 100% lethality at 24 hr, with synergist: 0.28 ug/cm^2
hAChE
  IC50: 0.265 µM

## CNC(=O)Oc1cccc([Si](C)(C)C)c1 [Compound 2a, N-methyl 3-(trimethylsilyl)phenyl carbamate]
Ag ace-1S [1]
  IC50 ratio (hAChE/Ag ace-1S): (130x)
Ag ace-1S [2]
  IC50: 0.0041 µM
Ag hmg AChE; [8]
  IC50: 0.0056 µM
Ag hmg AChE; more potent at Ag hmg AChE
  difference in potency Ag hmg AChE vs Md hmg AChE: 100 fold
Ag hmg AChE
  IC50 ratio (hAChE/Ag hmg): (95x)
Md hmg AChE; [7]
  IC50: 0.7 µM
Anopheles gambiae
  Live Mosquito Contact Toxicity MC for 100% lethality at 24 hr: 5.6 ug/cm^2
hAChE
  IC50: 0.532 µM

## CC[Si](C)(C)c1cccc(OC(=O)NC)c1 [Compound 3a, N-methyl 3-ethyldimethylsilylphenyl carbamate]
Ag ace-1S [1]
  IC50 ratio (hAChE/Ag ace-1S): (130x)
Ag ace-1S [2]
  IC50: 0.0022 µM
Ag hmg AChE; [8]
  IC50: 0.0027 µM
Ag hmg AChE
  IC50 ratio (hAChE/Ag hmg): (110x)
Anopheles gambiae
  Live Mosquito Contact Toxicity MC for 100% lethality at 24 hr: 11 ug/cm^2
hAChE
  IC50: 0.285 µM

## CNC(=O)Oc1cccc(C(C)C)c1 [Compound 4a]
Ag ace-1S [2]
  IC50: 0.012 µM
Ag hmg AChE; [8]
  IC50: 0.027 µM
Md hmg AChE; [7]
  IC50: 0.34 µM

## CCc1cccc(OC(=O)NC)c1 [Compound 5a]
Ag ace-1S [1]
  IC50 ratio (hAChE/Ag ace-1S): (6.4x)
Ag ace-1S [2]
  IC50: 0.392 µM
Ag hmg AChE; [8]
  IC50: 0.63 µM
Ag hmg AChE
  IC50 ratio (hAChE/Ag hmg): (4.0) x
Md hmg AChE; [7]
  IC50: 13 µM
Anopheles gambiae
  Live Mosquito Contact Toxicity MC for 100% lethality at 24 hr: 11 ug/cm^2
hAChE
  IC50: 2.5 µM

## CNC(=O)Oc1cccc(-c2ccccc2)c1 [Compound 6a]
Ag ace-1S [1]
  IC50 ratio (hAChE/Ag ace-1S): (3.2x)
Ag ace-1S [2]
  IC50: 12.1 µM
Ag hmg AChE; [8]
  IC50: 18.4 µM
Ag hmg AChE
  IC50 ratio (hAChE/Ag hmg): (2.1x)
Anopheles gambiae
  Live Mosquito Contact Toxicity MC for 100% lethality at 24 hr: 56 ug/cm^2
hAChE
  IC50: 38.9 µM

## CNC(=O)Oc1cccc(Cl)c1 [Compound 7a]
Ag ace-1S [1]
  IC50 ratio (hAChE/Ag ace-1S): (5.2x)
Ag ace-1S [2]
  IC50: 16.6 µM
Ag hmg AChE; [8]
  IC50: 26 µM
Ag hmg AChE
  IC50 ratio (hAChE/Ag hmg): (3.3x)
Md hmg AChE; [7]
  IC50: 50 µM
Anopheles gambiae
  Live Mosquito Contact Toxicity MC for 100% lethality at 24 hr: 56 ug/cm^2
hAChE
  IC50: 86 µM

## CNC(=O)Oc1cccc(Br)c1 [Compound 8a]
Ag ace-1S [1]
  IC50 ratio (hAChE/Ag ace-1S): (>13x)
Ag ace-1S [2]
  IC50: 7.61 µM
Ag hmg AChE; [8]
  IC50: 24 µM
Ag hmg AChE
  IC50 ratio (hAChE/Ag hmg): (>4.2x)
Md hmg AChE; [7]
  IC50: 13 µM
Anopheles gambiae
  Live Mosquito Contact Toxicity MC for 100% lethality at 24 hr: 11 ug/cm^2
hAChE
  IC50: > 100 µM

## CNC(=O)Oc1cccc(I)c1 [Compound 9a]
Ag ace-1S [1]
  IC50 ratio (hAChE/Ag ace-1S): (37x)
Ag ace-1S [2]
  IC50: 1.82 µM
Ag hmg AChE; [8]
  IC50: 5.17 µM
Ag hmg AChE
  IC50 ratio (hAChE/Ag hmg): (13x)
Md hmg AChE; [7]
  IC50: 7 µM
Anopheles gambiae
  Live Mosquito Contact Toxicity MC for 100% lethality at 24 hr: 11 ug/cm^2
hAChE
  IC50: 67.2 µM

## CNC(=O)Oc1cc(C)cc(C)c1 [Compound 10a]
Ag ace-1S [1]
  IC50 ratio (hAChE/Ag ace-1S): (17x)
Ag ace-1S [2]
  IC50: 1.04 µM
Ag hmg AChE; [8]
  IC50: 2.78 µM
Ag hmg AChE
  IC50 ratio (hAChE/Ag hmg): (6.2x)
Md hmg AChE; [7]
  IC50: 6 µM
Anopheles gambiae
  Live Mosquito Contact Toxicity MC for 100% lethality at 24 hr: 56 ug/cm^2
hAChE
  IC50: 17.4 µM

## CNC(=O)Oc1cc(C(C)(C)C)cc(C(C)(C)C)c1 [Compound 11a]
Ag ace-1S [1]
  IC50 ratio (hAChE/Ag ace-1S): (2.1x)
Ag ace-1S [2]
  IC50: 2.47 µM
Ag hmg AChE; [8]
  IC50: 5.32 µM
Ag hmg AChE
  IC50 ratio (hAChE/Ag hmg): (1.0x)
Md hmg AChE; [7]
  IC50: 0.078 µM
Anopheles gambiae
  lethality at 24 h: None at 11
hAChE
  IC50: 5.17 µM

## C=C(Br)COc1ccccc1OC(=O)NC [Compound 21b, 2-(2-bromoallyloxy)phenyl-N-methylcarbamate]
Ag ace-1S [2]
  IC50: 0.741 µM
Ag hmg AChE; [8]
  IC50: 1.07 µM
Anopheles gambiae
  Live Mosquito Contact Toxicity MC for 100% lethality at 24 hr: 11 ug/cm^2
hAChE
  IC50: 31.9 µM

## CNC(=O)Oc1ccccc1C(C)(C)C [Compound 23b, 2-tert-butylphenyl methylcarbamate]
Ag ace-1S [1]
  IC50 ratio (hAChE/Ag ace-1S): (1.9x)
Ag ace-1S [2]
  IC50: 51.7 µM
Ag hmg AChE; [8]
  IC50: 79 µM
Ag hmg AChE
  IC50 ratio (hAChE/Ag hmg): (>1.3x)
Anopheles gambiae
  Live Mosquito Contact Toxicity MC for 100% lethality at 24 hr: 56 ug/cm^2
hAChE
  IC50: > 100 µM

## CNC(=O)ON=C(C)SC [Methomyl, reference compound]
Ag ace-1S [1]
  IC50 ratio (hAChE/Ag ace-1S): (0.36x)
Ag ace-1S [2]
  IC50: 1.76 µM
Ag hmg AChE; [4]
  IC50: 0.716 µM
Ag hmg AChE
  IC50 ratio (hAChE/Ag hmg): (0.87x)
Anopheles gambiae
  Live Mosquito Contact Toxicity MC for 100% lethality at 24 hr: 2.7 ug/cm^2
hAChE; [5]
  IC50: 0.626 µM

## CNC(=O)Oc1ccccc1OC(C)C [Propoxur, reference compound]
Ag ace-1S [1]
  IC50 ratio (hAChE/Ag ace-1S): (2.1x)
Ag ace-1S [2]
  IC50: 0.213 µM
Ag hmg AChE; [8]
  IC50: 0.371 µM
Ag hmg AChE
  IC50 ratio (hAChE/Ag hmg): (1.2x)
Md hmg AChE; [7]
  IC50: 0.67 µM
Anopheles gambiae
  Live Mosquito Contact Toxicity MC for 100% lethality at 24 hr: 1.1 ug/cm^2
hAChE
  IC50: 0.444 µM

## N-methyl-3-fluoro-5-trifluoromethylphenylcarbamate [Compound 12a]
Ag ace-1S [2]; [3]
  IC50: 78.5 µM
Ag hmg AChE; [4]
  IC50: > 100 µM
Anopheles gambiae
  lethality at 24 h: None at 11
hAChE; [5]
  IC50: > 100 µM
